Test results taken from US6663846B1, “Devices and methods for monitoring drug therapy compliance” (priority 1998, dated 2003).

Experiments:
[1] = Emission spectra, front-face illumination, excitation at 600 nm; type: physicochemical; details: for emission peak: in 0.5% intralipid; for emission maximum: in water
Method: All fluorescence measurements were performed using front-face illumination and detection, using the sample holder shown in FIG. 18. The incident light was redirected from the usual position using two mirrors. The position of the sample could be adjusted with a movable stage. The re-emergent light passed through one or more optical filters prior to reaching the destination.
The sample consisted of either a cuvette containing the intralipid, or a quartz slide covering the chicken muscle and skin (FIG. 19). Excitation at 600 nm was provided by the fundamental output of a rhodamine 6G dye laser. This dye laser was synchronously pumped by a mode-locked argon ion laser, and cavity dumped at 1.88 MHz.
For the present studies we used two fluorophores with ns decay times, Rh800 and IcG, and a long lifetime metal ligand complex. We refer to this long lifetime reference as the Ru complex (FIG. 1). All three fluorophores can be excited at 600 nm. In water Rh800 emits maximally near 706 nm, and IcG near 805 nm. […] The emission spectra of Rh800 and IcG in 0.5% intralipid is similar to those observed in water (FIG. 2).

[2] = Frequency-domain intensity decay (fluorescence lifetime) measurements; type: physicochemical; details: for decay time: Rh800 in 0.5% intralipid, Ru complex in PVA film
Method: Frequency domain intensity decay measurements were performed as described previously. Phase angles and modulation measurements at frequencies greater than 1.88 MHz were accomplished using the harmonic content of the picosecond pulses. The excitation was polarized vertically, and the emission detected without an emission polarizer. The re-emergent light was either observed directly, or through two cut-off filters (630 and 660 nm) to remove scattered light and/or attenuate the fluorophore emission relative to that of the long lived reference.
A long lifetime reference signal was provided by [Ru(bPY)2(dppz)](PF6)^2 in a polyvinyl alcohol (PVA) film, where bpy is 2,2′-bipyridine and dppz is dipyrido[3,2-a:2′,3′-cl]phenazine. Such metal-ligand complexes are known to display lifetimes from 100 ns to 13 (s. The intensity decay time of [Ru(bpy)2(dppz)](PF6)2 in the PVA film was near 800 ns (Table 1 as shown in FIG. 20).
The intensity decay data was analyzed in terms of the multi-exponential model [formula]
In this expression αi represents the pre-exponential factors associated with each lifetime τi. The fractional contribution of each decay time component to the steady state intensity is given by [formula]
The values of Σαi and Σfi are typically normalized to unity. The mean lifetime is given by [formula]
In the frequency-domain measurements the measured quantities are the phase shift of the emission […] and its modulation (m107) at the light modulation frequency ωi in radians/sec. The values of αi and τi are determined by non-linear least squares fitting and minimization of the goodness-of-fit parameter X^2R. [formula]
In this expression the subscript c refers to calculated values of φω and mω for assumed values of αi and τi and ν is the number of degrees of freedom. δω and δm represent the uncertainties in the measured values. In some cases we performed a global analysis of data measured at more than one fluorophore concentrations. In this case the sum in equation 3 extends over these multiple concentrations (k).
We examined the frequency-domain intensity decay of Rh800 and IcG in 0.5% intralipid. As the concentration of Rh800 increased the frequency response shifted to higher frequency (FIG. 5). […] In 0.5% intralipid the intensity decay of Rh800 becomes more complex. The data could be fit to a two decay time model. The individual decay times and the mean decay times decreased with increasing Rh800 concentrations (FIG. 6). Similar results are found for IcG, with the decay times and mean decay time decreasing with increasing IcG concentration (Table III, as shown in FIG. 22).

[3] = humans; cited from earlier work
[4] = cited from earlier work

Compound	emission peak [1]	emission maximum [1]	decay time [2]	intensity decay time ([2]; in water, no intralipid, single exponential)	clearance from circulation [3]	fluorescence in water [4]	intensity decay time in PVA film ([2]; polyvinyl alcohol film)
Rhodamine 800 [Rh800]	~710 nm	~706 nm	1.62 ns	0.686 ns	–	–	–
CC1(C)C(/C=C/C=C/C=C/C=C2\N(CCCCS(=O)(=O)O)c3ccc4ccccc4c3C2(C)C)=[N+](CCCCS(=O)(=O)[O-])c2ccc3ccccc3c21 [IcG, indocyanine green]	~820 nm	~805 nm	–	–	rapidly cleared from circulation	–	–
Ruthenium bis-2,2′-bipyridine dipyridophenazine [Ru complex]	–	–	834 ns	–	–	essentially non-fluorescent in water	~800 ns
